Data as given in publication PMC10140010 (Investigational New Drugs, 2023).
Several values for one entry are separate records, joined by “and”; a condition that tells them apart may be missing. Equal entries are not always repeated. Where two headings read alike, the source gives them in different places.

Key:
KDR = KDR (Homo sapiens, UniProt P35968); assay: Z'-LYTE kinase selectivity; assay type: biochemical
[1] = tested on: NCI-H3122 (EML4-ALK) xenograft; assay: NCI-H3122 cell line-derived xenograft model (tumor volume, body weight); assay type: in vivo, BALB/c nude mice; conditions: for Tumor volume, individual animals: in mm³
Procedure: Female BALB/c nude mice (4–6 weeks old) were provided by Shanghai Sipple-Bikai Laboratory Animal Co., Ltd. and Beijing Vital River Laboratory Animal Technology Co., Ltd. The mice were housed in a specific pathogen-free environment under a 12 h light/dark cycle, and had free access to sterile animal feed and water.
PDX and CDX models were used for in vivo studies. Patient-derived tumors tissues were divided into about 30 mm^3 and transplanted into the right dorsal subcutis. Treatment began when the tumor size reached to 200 mm^3. The mice were randomly assignied into the corresponding dosing groups (9 mice in each group). Drugs were deliverd via daily oral for 4 weeks. Tumor size was measured periodically using a digital caliper (Cal Pro, Sylvac, Switzerland), and tumor volume was calculated as 0.5 × length × width^2. For more detailed information, please refer to Supplementary materials. All procedures and protocols of xenograft models were approved by the Institutional Animal Care and Use Committee of WuXi AppTec.
NCI-H3122 cells were re-suspended with 0.9% sodium chloride, and then 6×10^6 cells in 100 μL was inoculated subcutaneously into the right armpit of nude mice to prepare solid tumor models under sterile conditions. […] Groups were gavaged once daily with the base dose of drug for 21 days. The blank control group was given the same volume of vehicle (sterile water) injection according to the same protocol, with the dose volume of 100 μL/10 g.

c-MET = c-MET (Homo sapiens, UniProt P08581); assay: Z'-LYTE kinase selectivity; assay type: biochemical
Chain of c-MET (P08581 25-1390): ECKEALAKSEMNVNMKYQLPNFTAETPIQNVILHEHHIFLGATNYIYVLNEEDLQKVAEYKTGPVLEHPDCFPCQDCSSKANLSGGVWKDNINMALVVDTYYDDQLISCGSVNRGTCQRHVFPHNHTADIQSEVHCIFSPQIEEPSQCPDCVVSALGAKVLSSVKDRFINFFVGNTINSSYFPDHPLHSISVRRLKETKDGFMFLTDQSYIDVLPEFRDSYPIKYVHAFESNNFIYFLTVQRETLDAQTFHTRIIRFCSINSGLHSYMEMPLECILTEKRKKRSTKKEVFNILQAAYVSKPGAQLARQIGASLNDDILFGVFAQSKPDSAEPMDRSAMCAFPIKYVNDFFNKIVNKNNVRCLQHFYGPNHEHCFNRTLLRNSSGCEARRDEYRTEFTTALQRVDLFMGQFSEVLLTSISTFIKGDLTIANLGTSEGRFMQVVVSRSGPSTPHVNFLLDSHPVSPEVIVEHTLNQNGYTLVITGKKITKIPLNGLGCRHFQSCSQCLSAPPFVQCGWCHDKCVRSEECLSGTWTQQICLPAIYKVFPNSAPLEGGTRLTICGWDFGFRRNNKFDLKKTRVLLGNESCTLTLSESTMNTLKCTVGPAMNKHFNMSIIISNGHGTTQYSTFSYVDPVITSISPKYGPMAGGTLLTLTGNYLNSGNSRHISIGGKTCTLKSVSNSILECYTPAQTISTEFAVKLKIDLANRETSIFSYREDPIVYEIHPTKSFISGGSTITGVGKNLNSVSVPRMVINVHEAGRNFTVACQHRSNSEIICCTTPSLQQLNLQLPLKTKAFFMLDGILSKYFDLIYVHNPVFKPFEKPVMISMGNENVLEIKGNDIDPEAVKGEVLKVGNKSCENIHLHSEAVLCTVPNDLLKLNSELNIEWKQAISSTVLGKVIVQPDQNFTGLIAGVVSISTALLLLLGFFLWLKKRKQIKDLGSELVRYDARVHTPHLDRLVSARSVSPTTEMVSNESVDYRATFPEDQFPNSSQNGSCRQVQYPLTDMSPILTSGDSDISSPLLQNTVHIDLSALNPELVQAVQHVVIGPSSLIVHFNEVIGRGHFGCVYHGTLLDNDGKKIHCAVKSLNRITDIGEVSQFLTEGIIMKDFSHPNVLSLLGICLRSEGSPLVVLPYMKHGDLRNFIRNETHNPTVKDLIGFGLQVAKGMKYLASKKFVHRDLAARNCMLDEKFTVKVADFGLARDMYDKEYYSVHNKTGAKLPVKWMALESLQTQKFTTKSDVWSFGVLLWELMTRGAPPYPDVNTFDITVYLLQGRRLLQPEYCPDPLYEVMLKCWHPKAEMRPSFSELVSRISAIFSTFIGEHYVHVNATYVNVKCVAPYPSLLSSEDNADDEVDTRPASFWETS

JNK1 = JNK1 (Homo sapiens, UniProt P45983); assay: Z'-LYTE kinase selectivity; assay type: biochemical
Chain of JNK1 (P45983 whole entry): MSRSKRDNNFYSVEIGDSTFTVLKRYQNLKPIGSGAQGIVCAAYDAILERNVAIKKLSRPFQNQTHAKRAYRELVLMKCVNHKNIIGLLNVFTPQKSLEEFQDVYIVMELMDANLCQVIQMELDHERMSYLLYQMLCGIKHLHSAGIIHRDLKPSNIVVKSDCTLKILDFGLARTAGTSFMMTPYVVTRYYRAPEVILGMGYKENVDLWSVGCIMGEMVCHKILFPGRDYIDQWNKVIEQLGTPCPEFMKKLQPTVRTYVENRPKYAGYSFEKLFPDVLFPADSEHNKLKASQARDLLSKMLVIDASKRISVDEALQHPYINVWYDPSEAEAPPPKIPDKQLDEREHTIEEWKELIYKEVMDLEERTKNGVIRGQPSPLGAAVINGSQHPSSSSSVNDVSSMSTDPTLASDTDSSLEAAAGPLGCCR

INSR = INSR (Homo sapiens, UniProt P06213); assay: Z'-LYTE kinase selectivity; assay type: biochemical
Chain of INSR (P06213 28-1382): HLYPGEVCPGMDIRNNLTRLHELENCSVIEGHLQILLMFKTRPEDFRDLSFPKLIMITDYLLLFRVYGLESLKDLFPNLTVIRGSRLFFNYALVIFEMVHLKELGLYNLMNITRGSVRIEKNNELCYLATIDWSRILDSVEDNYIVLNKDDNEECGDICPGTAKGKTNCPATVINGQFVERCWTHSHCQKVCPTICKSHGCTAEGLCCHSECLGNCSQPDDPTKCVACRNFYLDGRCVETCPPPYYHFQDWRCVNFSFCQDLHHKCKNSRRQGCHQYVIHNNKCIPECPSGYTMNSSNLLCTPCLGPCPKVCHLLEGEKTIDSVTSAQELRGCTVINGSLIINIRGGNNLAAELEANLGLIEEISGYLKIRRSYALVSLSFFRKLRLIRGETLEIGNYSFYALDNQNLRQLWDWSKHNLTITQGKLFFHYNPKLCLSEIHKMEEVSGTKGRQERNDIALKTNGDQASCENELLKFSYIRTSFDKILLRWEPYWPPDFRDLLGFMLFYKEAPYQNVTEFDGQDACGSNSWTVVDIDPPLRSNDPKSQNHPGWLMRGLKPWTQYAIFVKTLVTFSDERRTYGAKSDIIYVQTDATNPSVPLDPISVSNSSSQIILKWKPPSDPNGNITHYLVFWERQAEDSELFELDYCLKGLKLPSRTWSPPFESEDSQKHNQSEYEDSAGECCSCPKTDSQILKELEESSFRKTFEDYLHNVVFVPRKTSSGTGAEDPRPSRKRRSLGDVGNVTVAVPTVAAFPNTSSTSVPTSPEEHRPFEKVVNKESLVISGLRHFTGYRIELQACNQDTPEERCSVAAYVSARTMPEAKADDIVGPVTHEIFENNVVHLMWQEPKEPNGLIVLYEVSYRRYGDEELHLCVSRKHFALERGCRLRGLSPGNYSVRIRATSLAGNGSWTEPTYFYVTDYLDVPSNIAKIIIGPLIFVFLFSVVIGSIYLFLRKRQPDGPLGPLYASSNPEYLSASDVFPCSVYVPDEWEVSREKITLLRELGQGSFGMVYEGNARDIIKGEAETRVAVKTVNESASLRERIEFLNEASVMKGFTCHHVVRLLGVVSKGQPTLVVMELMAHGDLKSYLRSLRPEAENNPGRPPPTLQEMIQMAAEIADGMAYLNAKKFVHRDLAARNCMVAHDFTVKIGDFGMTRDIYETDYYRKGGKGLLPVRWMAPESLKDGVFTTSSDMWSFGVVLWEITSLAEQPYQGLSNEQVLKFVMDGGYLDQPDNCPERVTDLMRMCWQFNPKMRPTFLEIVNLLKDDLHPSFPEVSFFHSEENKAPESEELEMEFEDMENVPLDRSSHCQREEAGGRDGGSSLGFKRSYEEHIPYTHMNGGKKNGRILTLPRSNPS

[2] = tested on: Ba/F3 (EML4-ALK^C1156Y) cells; assay: Cell proliferation (CellTiter-Glo); assay type: cell-based
Procedure: (§1) Cell proliferation assay was performed using methods reported in the previous article. Cell proliferation was measured using the CellTiter-Glo® (CTG) Luminescent Cell Viability Assay (Promega, WI, USA). Cells were seeded in 96-well plates at 15,000 cells per well in detection medium containing 0.5% fetal bovine serum and placed in an incubator at 37℃ and 5% CO2 overnight. On the following day, iruplinalkib was serially diluted with DMSO, further diluted in assay medium, and added to the designated wells for serial dilution of iruplinalkib to the target gradient concentration.
(§2) Transfection was performed when cell confluent reached 70–90% in 12-well plates. Opti-MEM medium was used to dilute Lipofectamine 3000 reagent (ThermoFisher, MA, USA) and siRNA separately and mixed well. The mixture was added to the cells after incubation at room temperature for 15 min, then at 37℃ for 2–4 days.

[3] = tested on: Ba/F3 (EML4-ALK^WT) cells; assay: Cell proliferation (CellTiter-Glo); assay type: cell-based
Procedure: as §1, §2

PDK1 = PDK1 (Homo sapiens, UniProt O15530); assay: Z'-LYTE kinase selectivity; assay type: biochemical; conditions: read-out: IC50 PDK1
GSK3 beta = GSK3 beta (Homo sapiens, UniProt P49841); assay: Z'-LYTE kinase selectivity; assay type: biochemical
Chain of GSK3 beta (P49841 whole entry): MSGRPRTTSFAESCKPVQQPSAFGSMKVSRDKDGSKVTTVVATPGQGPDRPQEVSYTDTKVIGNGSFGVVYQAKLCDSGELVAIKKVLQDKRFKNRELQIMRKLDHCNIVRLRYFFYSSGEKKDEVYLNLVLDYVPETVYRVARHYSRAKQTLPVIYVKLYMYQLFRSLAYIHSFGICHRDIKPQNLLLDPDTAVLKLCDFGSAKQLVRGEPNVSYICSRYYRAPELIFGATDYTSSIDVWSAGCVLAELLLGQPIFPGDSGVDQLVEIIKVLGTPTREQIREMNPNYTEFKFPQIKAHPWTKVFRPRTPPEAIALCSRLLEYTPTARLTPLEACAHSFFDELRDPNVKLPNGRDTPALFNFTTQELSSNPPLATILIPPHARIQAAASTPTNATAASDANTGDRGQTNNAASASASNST

CHK1 = CHK1 (Homo sapiens, UniProt O14757); assay: Z'-LYTE kinase selectivity; assay type: biochemical
Chain of CHK1 (O14757 whole entry): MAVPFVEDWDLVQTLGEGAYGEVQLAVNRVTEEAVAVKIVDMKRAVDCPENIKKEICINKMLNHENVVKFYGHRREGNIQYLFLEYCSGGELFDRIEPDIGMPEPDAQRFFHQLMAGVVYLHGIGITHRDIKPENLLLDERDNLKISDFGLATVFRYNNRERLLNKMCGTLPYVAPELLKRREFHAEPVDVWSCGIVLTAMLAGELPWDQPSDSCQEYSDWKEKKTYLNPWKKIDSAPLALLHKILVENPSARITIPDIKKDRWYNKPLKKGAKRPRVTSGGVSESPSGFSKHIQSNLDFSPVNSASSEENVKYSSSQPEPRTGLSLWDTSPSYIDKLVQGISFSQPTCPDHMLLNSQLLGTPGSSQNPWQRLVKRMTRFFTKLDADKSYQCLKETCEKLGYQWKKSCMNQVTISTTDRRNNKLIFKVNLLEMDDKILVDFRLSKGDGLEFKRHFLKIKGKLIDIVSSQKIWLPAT

CK1 alpha = CK1 alpha (Homo sapiens, UniProt P48729); assay: Z'-LYTE kinase selectivity; assay type: biochemical
Chain of CK1 alpha (P48729 whole entry): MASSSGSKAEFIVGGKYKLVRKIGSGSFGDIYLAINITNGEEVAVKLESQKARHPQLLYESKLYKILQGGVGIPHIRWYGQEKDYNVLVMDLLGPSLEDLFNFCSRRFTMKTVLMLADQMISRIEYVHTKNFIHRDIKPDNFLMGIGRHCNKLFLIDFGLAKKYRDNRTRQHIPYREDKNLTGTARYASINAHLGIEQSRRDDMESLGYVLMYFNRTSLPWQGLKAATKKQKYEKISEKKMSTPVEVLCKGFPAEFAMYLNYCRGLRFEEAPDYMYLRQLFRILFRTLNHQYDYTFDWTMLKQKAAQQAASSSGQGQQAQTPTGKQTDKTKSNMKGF

DYRK3 = DYRK3 (Homo sapiens, UniProt O43781); assay: Z'-LYTE kinase selectivity; assay type: biochemical
Chain of DYRK3 (O43781 whole entry): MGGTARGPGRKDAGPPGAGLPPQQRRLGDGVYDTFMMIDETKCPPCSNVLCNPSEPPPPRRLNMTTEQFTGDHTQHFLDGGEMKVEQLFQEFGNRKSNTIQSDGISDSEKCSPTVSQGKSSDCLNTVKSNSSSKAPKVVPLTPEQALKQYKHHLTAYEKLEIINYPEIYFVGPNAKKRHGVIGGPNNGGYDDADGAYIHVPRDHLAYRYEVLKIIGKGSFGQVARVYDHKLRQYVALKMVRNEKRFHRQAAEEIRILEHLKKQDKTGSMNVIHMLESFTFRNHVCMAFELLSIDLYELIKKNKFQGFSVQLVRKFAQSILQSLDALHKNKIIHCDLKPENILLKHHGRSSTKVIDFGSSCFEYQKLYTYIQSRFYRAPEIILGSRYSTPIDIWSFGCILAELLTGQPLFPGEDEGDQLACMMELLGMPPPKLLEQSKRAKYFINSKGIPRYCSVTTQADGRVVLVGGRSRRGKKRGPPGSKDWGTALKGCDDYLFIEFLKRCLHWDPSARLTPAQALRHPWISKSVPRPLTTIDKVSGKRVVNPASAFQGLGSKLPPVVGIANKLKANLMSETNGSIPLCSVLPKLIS

TNIK = TNIK (Homo sapiens, UniProt Q9UKE5); assay: Z'-LYTE kinase selectivity; assay type: biochemical
[4] = tested on: phosphorylation of ALK, AKT, ERK, STAT3 and STAT5 in NCI-H3122 tumor tissue; assay: Phosphorylation of downstream signal molecules in tumor tissue of NCI-H3122 xenograft; assay type: in vivo, BALB/c nude mice; conditions: 8 h after administration
Procedure: In general, the cells were exposed to the drug and were harvested for western blot analysis. SDS-PAGE was used to separate the proteins of interest, which were then transferred to a nitrocellulose (NC) filtration membrane and soaked in a blocking solution [5% non-fat dry milk in tris-buffered saline with Tween 20 (TBST)] for 1 h at room temperature. Thereafter, the membrane was probed overnight with primary antibodies at 4℃ and washed three times with TBST. The corresponding secondary antibody diluent was added, incubated at room temperature for 1 h, and washed 3 times with TBST. After adding the enhanced chemiluminescence developer to the NC filtration membrane, it is developed in the imaging system (ChemiDoc™ XRS^+, BIO-RAD). See Supplementary Table 2 for details of the antibodies used.
In order to check how iruplinalkib exerts its anti-tumor effects in vivo, tumor tissue samples were collected at 1 and 8 h after the last dose, and the phosphorylation level of downstream signaling pathways molecules were detected.

OAT1 = assay: Uptake inhibitor investigation in HEK293 cells expressing transporter; assay type: in vitro ADME
CYP2B6 = assay: Hepatic enzyme induction in human hepatocytes (gene expression); assay type: in vitro ADME
[5] = 5mg/kg PO QD×21, day 0 after administration
[6] = 5mg/kg PO QD×21, day 3 after administration
[7] = 5mg/kg PO QD×21, day 6 after administration
[8] = 5mg/kg PO QD×21, day 9 after administration
[9] = 5mg/kg PO QD×21, day 13 after administration
[10] = 5mg/kg PO QD×21, day 16 after administration
[11] = 5mg/kg PO QD×21, day 20 after administration
[12] = 2.5mg/kg PO QD×21, day 0 after administration
[13] = 2.5mg/kg PO QD×21, day 3 after administration
[14] = 2.5mg/kg PO QD×21, day 6 after administration
[15] = 2.5mg/kg PO QD×21, day 9 after administration
[16] = 2.5mg/kg PO QD×21, day 13 after administration
[17] = 2.5mg/kg PO QD×21, day 16 after administration
[18] = 2.5mg/kg PO QD×21, day 20 after administration
[19] = human, HEK293 cells expressing OAT1, probe ATV, 1 μM, read-out: Inhibition rate

## COc1cc(N2CCC(N3CCN(C)CC3)CC2)ccc1Nc1ncc(Cl)c(Nc2ccccc2P(C)(C)=O)n1 [Brigatinib, reference compound]
KDR
  IC50: 0.178 ± 0.052 µM
[1]; [5]
  Tumor volume Mean: 174 mm³
  Tumor volume, individual animals: 116 and 221 and 152 and 134 and 154 and 194 and 207 and 229
[1]; [6]
  Tumor volume Mean: 252 mm³
  Tumor volume, individual animals: 235 and 195 and 320 and 239 and 193 and 260 and 247 and 262 and 319
[1]; [7]
  Tumor volume Mean: 352 mm³
  Tumor volume, individual animals: 344 and 246 and 444 and 301 and 248 and 364 and 372 and 370 and 474
[1]; [8]
  Tumor volume Mean: 461 mm³
  Tumor volume, individual animals: 473 and 337 and 548 and 418 and 289 and 518 and 482 and 535 and 555
[1]; [9]
  Tumor volume Mean: 502 mm³
  Tumor volume, individual animals: 454 and 241 and 654 and 480 and 315 and 575 and 637 and 495 and 666
[1]; [10]
  Tumor volume Mean: 547 mm³
  Tumor volume, individual animals: 521 and 320 and 707 and 541 and 350 and 627 and 656 and 464 and 737
[1]; [11]
  Tumor volume Mean: 612 mm³
  Tumor volume, individual animals: 710 and 414 and 729 and 637 and 412 and 711 and 707 and 501 and 687
c-MET
  IC50: 1.83 ± 0.231 µM
JNK1
  IC50: 1.52 ± 0.733 µM
INSR
  IC50: 0.626 ± 0.304 µM
[2]; read-out: IC50 BaF3-EML4-ALK C1156Y
  IC50: 0.014 µM
[3]; read-out: IC50 BaF3-EML4-ALK WT
  IC50: 0.006 µM
PDK1
  IC50: > 10 µM
GSK3 beta
  IC50: > 10 µM
CHK1
  IC50: 0.07 ± 0.032 µM
CK1 alpha
  IC50: > 10 µM
DYRK3
  IC50: > 10 µM
TNIK
  IC50: 2.37 ± 1.33 µM
[4]
  levels of phosphorylation of STAT3 and STAT5 in tumor tissue: decreased

## COc1cc(N2CCC3(CCN(C)CC3)CC2)ccc1Nc1ncc(Cl)c(Nc2ccccc2P(C)(C)=O)n1 [Iruplinalkib]
KDR; read-out: IC50 KDR
  IC50: 0.26 ± 0.128 µM
[1]; [12]
  Tumor volume Mean: 176 mm³
  Tumor volume, individual animals: 188 and 164 and 230 and 150 and 236 and 136 and 182 and 147
[1]; [13]
  Tumor volume Mean: 295 mm³
  Tumor volume, individual animals: 324 and 257 and 368 and 284 and 366 and 229 and 267 and 234
[1]; [14]
  Tumor volume Mean: 449 mm³
  Tumor volume, individual animals: 431 and 392 and 594 and 476 and 695 and 327 and 410 and 337 and 384
[1]; [15]
  Tumor volume Mean: 606 mm³
  Tumor volume, individual animals: 596 and 541 and 738 and 570 and 1128 and 398 and 498 and 499 and 486
[1]; [16]
  Tumor volume Mean: 694 mm³
  Tumor volume, individual animals: 630 and 635 and 849 and 718 and 1127 and 586 and 573 and 580 and 545
[1]; [17]
  Tumor volume Mean: 887 mm³
  Tumor volume, individual animals: 729 and 821 and 1141 and 926 and 1167 and 805 and 883 and 751 and 758.9
[1]; [18]
  Tumor volume Mean: 972 mm³
  Tumor volume, individual animals: 760 and 976 and 1087 and 1021 and 1125 and 811 and 1040 and 1032 and 895
[1]; [5]
  Tumor volume Mean: 177 mm³
  Tumor volume, individual animals: 233 and 239 and 173 and 121 and 155 and 235
[1]; [6]
  Tumor volume Mean: 260 mm³
  Tumor volume, individual animals: 306 and 299 and 256 and 223 and 292 and 296
[1]; [7]
  Tumor volume Mean: 371 mm³
  Tumor volume, individual animals: 537 and 487 and 339 and 249 and 357 and 438
[1]; [8]
  Tumor volume Mean: 430 mm³
  Tumor volume, individual animals: 567 and 541 and 407 and 332 and 403 and 534
[1]; [9]
  Tumor volume Mean: 531 mm³
  Tumor volume, individual animals: 666 and 699 and 523 and 388 and 515
[1]; [10]
  Tumor volume Mean: 624 mm³
  Tumor volume, individual animals: 718 and 880 and 646 and 506 and 603
[1]; [11]
  Tumor volume Mean: 727 mm³
  Tumor volume, individual animals: 811 and 875 and 702 and 717 and 714
[1]; 10mg/kg PO QD×21, day 0 after administration
  Tumor volume Mean: 174 mm³
[1]; 10mg/kg PO QD×21, day 3 after administration
  Tumor volume Mean: 190 mm³
[1]; 10mg/kg PO QD×21, day 6 after administration
  Tumor volume Mean: 204 mm³
[1]; 10mg/kg PO QD×21, day 9 after administration
  Tumor volume Mean: 240 mm³
[1]; 10mg/kg PO QD×21, day 13 after administration
  Tumor volume Mean: 243 mm³
[1]; 10mg/kg PO QD×21, day 16 after administration
  Tumor volume Mean: 218 mm³
[1]; 10mg/kg PO QD×21, day 20 after administration
  Tumor volume Mean: 233 mm³
OAT1; HEK293
  inhibitor of OAT1: can not be its inhibitor
OAT1; [19]
  inhibition at 0.5 μM: 26.7%
  inhibition at 5 μM: 22.5%
  inhibition at 50 μM: 31.9%
c-MET
  IC50: 2.94 ± 0.232 µM
CYP2B6; 10 µM, human hepatocytes from three donors
  inducer of CYP2B6: not an inducer
CYP2B6; donor 1, 0.1 µM
  CYP2B6 gene expression, folds of expression: 0.798 fold
CYP2B6; donor 1, 1 µM
  CYP2B6 gene expression, folds of expression: 1.36 fold
CYP2B6; donor 1, 10 µM
  CYP2B6 gene expression, folds of expression: 2.62 fold
CYP2B6; donor 2, 0.1 µM
  CYP2B6 gene expression, folds of expression: 0.862 fold
CYP2B6; donor 2, 1 µM
  CYP2B6 gene expression, folds of expression: 0.926 fold
CYP2B6; donor 2, 10 µM
  CYP2B6 gene expression, folds of expression: 4.02 fold
CYP2B6; donor 3, 0.1 µM
  CYP2B6 gene expression, folds of expression: 0.526 fold
CYP2B6; donor 3, 1 µM
  CYP2B6 gene expression, folds of expression: 1.13 fold
CYP2B6; donor 3, 10 µM
  CYP2B6 gene expression, folds of expression: 0.602 fold
JNK1
  IC50: 2.04 ± 1.17 µM
INSR
  IC50: 0.699 ± 0.261 µM
[2]; Mus musculus, BaF3
  IC50: 0.009 µM
[3]; Mus musculus, BaF3
  IC50: 0.004 µM
PDK1
  IC50: > 10 µM
GSK3 beta
  IC50: > 10 µM
CHK1
  IC50: 0.185 ± 0.041 µM
CK1 alpha
  IC50: > 10 µM
DYRK3
  IC50: 8.01 ± 0.583 µM
TNIK
  IC50: 3.21 ± 1.54 µM
[4]
  levels of phosphorylation of STAT3 and STAT5 in tumor tissue: decreased
